Key:
Test in all cases: relative viability (nuclei count vs DMSO), 5 days (fraction); higher = more cells survive
[1] = compound: C(C(=O)C(=O)O)Br [Bromopyruvate] + Cc1nc(Nc2ncc(C(=O)Nc3c(C)cccc3Cl)s2)cc(N2CCN(CCO)CC2)n1 [Dasatinib] (partner 0.075 µM)
How it was run: (§1)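 Each reported value is a median over duplicate plates. It expresses relative viability: treated-well nuclei count divided by vehicle-well nuclei count. Lung cancer cell lines in 1536-well plates were dosed by pin tool a day after seeding, alone with one drug or with a fixed anchor-drug dose plus five library-drug doses (not always all listed) in √10 steps, and nuclei were counted after 5 days.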

Bicalutamide + Foretinib = compound: CC(O)(CS(=O)(=O)c1ccc(F)cc1)C(=O)Nc1ccc(C#N)c(C(F)(F)F)c1 [Bicalutamide] + COc1cc2c(Oc3ccc(NC(=O)C4(C(=O)Nc5ccc(F)cc5)CC4)cc3F)ccnc2cc1OCCCN1CCOCC1 [Foretinib] (partner 0.25 µM)
How it was run: as §1

[2] = compound: CC(O)(CS(=O)(=O)c1ccc(F)cc1)C(=O)Nc1ccc(C#N)c(C(F)(F)F)c1 [Bicalutamide] + C[C@@H](Oc1cc(-c2cnn(C3CCNCC3)c2)cnc1N)c1c(Cl)ccc(F)c1Cl [Crizotinib] (partner 1 µM)
How it was run: as §1

[3] = compound: C(C(=O)C(=O)O)Br [Bromopyruvate] + Cc1nc(NC(=O)N2CCC[C@H]2C(N)=O)sc1-c1ccnc(C(C)(C)C(F)(F)F)c1 [Alpelisib] (partner 2 µM)
How it was run: as §1

| Cell Line | relative viability ([1]; first compound 1 µM) | relative viability ([1]; first compound 3.162 µM) | relative viability ([1]; first compound 10 µM) | relative viability ([1]; first compound 31.62 µM) | relative viability ([1]; first compound 100 µM) | relative viability (Bicalutamide + Foretinib; first compound 0.08 µM) | relative viability (Bicalutamide + Foretinib; first compound 0.253 µM) | relative viability (Bicalutamide + Foretinib; first compound 0.8 µM) | relative viability (Bicalutamide + Foretinib; first compound 2.53 µM) | relative viability ([2]; first compound 0.08 µM) | relative viability ([2]; first compound 0.253 µM) | relative viability ([2]; first compound 0.8 µM) | relative viability ([2]; first compound 2.53 µM) | relative viability ([3]; first compound 1 µM) | relative viability ([3]; first compound 3.162 µM) | relative viability ([3]; first compound 10 µM) | relative viability ([3]; first compound 31.62 µM) | relative viability ([3]; first compound 100 µM) |
| --- | --- | --- | --- | --- | --- | --- | --- | --- | --- | --- | --- | --- | --- | --- | --- | --- | --- | --- |
| NCI-H727 | 0.474 | 0.301 | 0.29 | 0.401 | 0.314 | 1 | 0.689 | 1.23 | 0.914 | 0.928 | 0.85 | 0.936 | 0.781 | 0.683 | 0.66 | 0.629 | 0.547 | 0.597 |
| NCI-H838 | 0.325 | 0.277 | 0.208 | 0.302 | 0.264 | 0.994 | 0.963 | 1.08 | 0.928 | 0.823 | 0.762 | 0.833 | 0.602 | 1.01 | 0.983 | 1.01 | 0.981 | 1.13 |
| NCI-H1355 | 0.674 | 0.761 | 0.766 | 0.713 | 0.786 | 1.03 | 0.963 | 1.1 | 1.03 | 1.12 | 0.993 | 1.14 | 1.04 | 0.833 | 0.961 | 0.774 | 0.872 | 0.903 |
| NCI-H1437 | 0.491 | 0.493 | 0.427 | 0.317 | 0.415 | 1.28 | 1.29 | 1.24 | 1.27 | 0.899 | 0.893 | 0.895 | 0.923 | 0.967 | 1.06 | 1.21 | 0.911 | 0.989 |
| NCI-H1563 | 0.487 | 0.47 | 0.563 | 0.402 | 0.426 | 0.888 | 0.872 | 0.89 | 0.897 | 0.863 | 0.861 | 0.794 | 0.743 | 0.984 | 1.02 | 0.825 | 0.978 | 0.809 |
| NCI-H1651 | 0.409 | 0.462 | 0.527 | 0.411 | 0.428 | 0.89 | 0.734 | 1.01 | 0.884 | 0.868 | 0.861 | 0.912 | 0.892 | 0.881 | 1.06 | 0.876 | 0.868 | 0.912 |
| NCI-H1666 | 0.847 | 0.839 | 0.785 | 0.855 | 0.694 | 0.927 | 0.975 | 0.913 | 0.977 | 1.13 | 0.969 | 1.15 | 0.794 | 1.21 | 1.07 | 1.11 | 1.02 | 0.774 |
| NCI-H1734 | 0.462 | 0.436 | 0.548 | 0.44 | 0.365 | 0.925 | 0.731 | 1 | 0.809 | 0.667 | 0.553 | 0.798 | 0.616 | 0.624 | 0.728 | 0.684 | 0.663 | 0.704 |
| NCI-H1755 | 0.439 | 0.46 | 0.469 | 0.464 | 0.475 | 0.895 | 0.883 | 0.96 | 0.853 | 0.901 | 0.803 | 0.849 | 0.791 | 0.95 | 0.925 | 0.968 | 0.963 | 0.97 |

— the supplement of paper PMC10307832
